Settings: in water

O=C1NC(=O)c2cc([N+](=O)[O-])ccc21
Settings | solubility (mole fraction)
278.15 K | 0.000105
283.15 K | 0.000142
288.15 K | 0.000187
293.15 K | 0.000248
298.15 K | 0.000324
303.15 K | 0.000415
308.15 K | 0.000537
313.15 K | 0.000684
318.15 K | 0.00086
323.15 K | 0.00109
